From PubChem BioAssay AID192 (DTP/NCI, 2004)
“And” between values parts separate entries of the source, which are not always exact repeats. Equal values may be shown once. Toxic doses and inconclusive results are not listed. Numbered stars: 1 amine (or outer) side, 2 acyl side, 3 side chain; on linkers, the order of the positions; unused ones are H or OH. Peptide text beside a SMILES is read from it. γGlu = O=C(O)[CH](CCC(=O)[*:2])N[*:1]

System: BDF1 mice, B16 melanoma ip, median survival T/C
Assay: NCI In Vivo Anticancer Drug Screen. Data for tumor model B16 Melanoma (intraperitoneal) in B6D2F1 (BDF1) mice
Details: endpoint: median survival time, higher = longer survival
Method in brief: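 Transplantable tumor model; survival or tumor size measured; reported as T/C, treated over vehicle control.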

[1] = dose: 12.5 mg/kg/injection, schedule: Q01DX009 (ip), vehicle: saline with Tween-80
[2] = dose: 25.0 mg/kg/injection, schedule: Q01DX009 (ip), vehicle: saline with Tween-80
[3] = dose: 50.0 mg/kg/injection, schedule: Q01DX009 (ip), vehicle: saline with Tween-80
[4] = dose: 8.0 mg/kg/injection, schedule: Q01DX009 (ip), vehicle: saline with Tween-80
[5] = dose: 100.0 mg/kg/injection, schedule: Q01DX009 (ip), vehicle: Klucel (hydroxypropylcellulose) (HPC)
[6] = dose: 200.0 mg/kg/injection, schedule: Q01DX009 (ip), vehicle: Klucel (hydroxypropylcellulose) (HPC)
[7] = dose: 400.0 mg/kg/injection, schedule: Q01DX009 (ip), vehicle: Klucel (hydroxypropylcellulose) (HPC)
[8] = dose: 100.0 mg/kg/injection, schedule: Q01DX009 (ip), vehicle: saline with Tween-80
[9] = dose: 50.0 mg/kg/injection, schedule: Q01DX009 (ip), vehicle: saline
[10] = dose: 100.0 mg/kg/injection, schedule: Q01DX009 (ip), vehicle: saline

With Nc1ncnc2c1ncn2C1OC(CO)C(O)C1O (stereo not given) the T/C (dose: 18.7 mg/kg/injection, schedule: Q01DX009 (ip), vehicle: saline) was 96 % of control, the T/C (dose: 32.0 mg/kg/injection, schedule: Q01DX009 (ip), vehicle: Klucel (hydroxypropylcellulose) (HPC)) was 99 % of control and 105 % of control and the T/C (dose: 37.5 mg/kg/injection, schedule: Q01DX009 (ip), vehicle: saline) was 99 % of control. The T/C (dose: 64.0 mg/kg/injection, schedule: Q01DX009 (ip), vehicle: Klucel (hydroxypropylcellulose) (HPC)) was 98 % of control and 101 % of control, the T/C (dose: 75.0 mg/kg/injection, schedule: Q01DX009 (ip), vehicle: saline) was 98 % of control and the T/C (dose: 128.0 mg/kg/injection, schedule: Q01DX009 (ip), vehicle: Klucel (hydroxypropylcellulose) (HPC)) was 99 % of control and 101 % of control. For the same molecule, the T/C (dose: 150.0 mg/kg/injection, schedule: Q01DX009 (ip), vehicle: saline) was 121 % of control, the T/C (dose: 256.0 mg/kg/injection, schedule: Q01DX009 (ip), vehicle: Klucel (hydroxypropylcellulose) (HPC)) was 97 % of control and 98 % of control and the T/C (dose: 512.0 mg/kg/injection, schedule: Q01DX009 (ip), vehicle: Klucel (hydroxypropylcellulose) (HPC)) was 93 % of control and 101 % of control. For the same molecule, the T/C (dose: 600.0 mg/kg/injection, schedule: Q01DX009 (ip), vehicle: saline) was 123 % of control.
For COc1cc2c(c(OC)c1OC)-c1cc3c(cc1[C@@H](OC(C)=O)[C@@H]1COC(=O)[C@H]1C2)OCO3, the T/C (dose: 1.25 mg/kg/injection, schedule: Q01DX009 (ip), vehicle: Klucel (hydroxypropylcellulose) (HPC)) was 104 % of control, the T/C (dose: 2.5 mg/kg/injection, schedule: Q01DX009 (ip), vehicle: Klucel (hydroxypropylcellulose) (HPC)) was 94 % of control and the T/C (dose: 5.0 mg/kg/injection, schedule: Q01DX009 (ip), vehicle: Klucel (hydroxypropylcellulose) (HPC)) was 104 % of control. The T/C (dose: 10.0 mg/kg/injection, schedule: Q01DX009 (ip), vehicle: Klucel (hydroxypropylcellulose) (HPC)) was 102 % of control.
In the case of ClC=P(c1ccccc1)(c1ccccc1)c1ccccc1, the T/C [1] is reported as 90 % of control, the T/C [2] is reported as 90 % of control and the T/C (dose: 33.0 mg/kg/injection, schedule: Q04DX003 (ip), vehicle: saline with Tween-80) is reported as 91 % of control. The T/C [3] was 92 % of control and 95 % of control, the T/C (dose: 50.0 mg/kg/injection, schedule: Q04DX003 (ip), vehicle: saline with Tween-80) was 152 % of control and the T/C (dose: 75.0 mg/kg/injection, schedule: Q04DX003 (ip), vehicle: saline with Tween-80) was 86 % of control.
For Cc1cc2ccccc2c[n+]1C, the T/C (dose: 12.5 mg/kg/injection, schedule: Q04DX003 (ip), vehicle: saline) was 95 % of control, the T/C (dose: 25.0 mg/kg/injection, schedule: Q04DX003 (ip), vehicle: saline) was 95 % of control and the T/C (dose: 50.0 mg/kg/injection, schedule: Q04DX003 (ip), vehicle: saline) was 95 % of control.
With CCCCCCCCCCCCCCCC[N+](C)(C)c1nc(Cl)nc(Cl)n1 the T/C (dose: 2.0 mg/kg/injection, schedule: Q01DX009 (ip), vehicle: saline with Tween-80) was 97 % of control, the T/C (dose: 4.0 mg/kg/injection, schedule: Q01DX009 (ip), vehicle: saline with Tween-80) was 100 % of control and the T/C [4] was 95 % of control.
In the case of CCCCCCCCCCCCNC(=O)CCl, the T/C [5] is reported as 104 % of control, the T/C [6] is reported as 102 % of control and the T/C [7] is reported as 100 % of control.
With NC(CCSCc1ccccc1)C(=O)O (stereo not given) the T/C [8] was 105 % of control, the T/C (dose: 200.0 mg/kg/injection, schedule: Q01DX009 (ip), vehicle: saline with Tween-80) was 96 % of control and the T/C (dose: 400.0 mg/kg/injection, schedule: Q01DX009 (ip), vehicle: saline with Tween-80) was 87 % of control.
In the case of C=C1C(=O)OC2C1CC1OC2C(C)CCC/C(C)=C\CCC1(C)O (stereo not given), the T/C [1] is reported as 97 % of control, the T/C [2] is reported as 101 % of control and the T/C [3] is reported as 100 % of control. The T/C [8] was 104 % of control.
In the case of O=C(Nc1nccs1)Nc1ccccc1C(F)(F)F, the T/C (dose: 25.0 mg/kg/injection, schedule: Q01DX009 (ip), vehicle: Klucel (hydroxypropylcellulose) (HPC)) is reported as 103 % of control, the T/C (dose: 50.0 mg/kg/injection, schedule: Q01DX009 (ip), vehicle: Klucel (hydroxypropylcellulose) (HPC)) is reported as 99 % of control and the T/C [5] is reported as 97 % of control. The T/C [6] was 103 % of control and the T/C [7] was 99 % of control.
With COc1cccc2c1C(=O)c1c(O)c3c(c(O)c1C2=O)C[C@@](O)(/C(C)=N/NC(=O)c1cccc([N+](=O)[O-])c1)C[C@@H]3OC1CC(N)C(O)C(C)O1 (stereo not given in full) the T/C (dose: 2.0 mg/kg/injection, schedule: Q01DX001 (ip), vehicle: water) was 153 % of control, the T/C (dose: 4.0 mg/kg/injection, schedule: Q01DX001 (ip), vehicle: water) was 158 % of control and 164 % of control and the T/C (dose: 8.0 mg/kg/injection, schedule: Q01DX001 (ip), vehicle: water) was 168 % of control and 178 % of control. The T/C (dose: 16.0 mg/kg/injection, schedule: Q01DX001 (ip), vehicle: water) was 164 % of control and 184 % of control and the T/C (dose: 32.0 mg/kg/injection, schedule: Q01DX001 (ip), vehicle: water) was 95 % of control.
CCN(CC)CCCC(C)Nc1c2ccc(Cl)cc2nc2ccc(OC)cc12 (stereo not given) was tested, and the T/C [4] was 94 % of control and 102 % of control, the T/C (dose: 8.0 mg/kg/injection, schedule: Q01DX009 (ip), vehicle: saline) was 100 % of control and the T/C (dose: 8.0 mg/kg/injection, schedule: Q01DX009 (ip), vehicle: suspension in saline) was 103 % of control. For the same molecule, the T/C (dose: 16.0 mg/kg/injection, schedule: Q01DX009 (ip), vehicle: saline with Tween-80) was 88 % of control and 107 % of control, the T/C (dose: 16.0 mg/kg/injection, schedule: Q01DX009 (ip), vehicle: saline) was 102 % of control and the T/C (dose: 16.0 mg/kg/injection, schedule: Q01DX009 (ip), vehicle: suspension in saline) was 105 % of control. For the same molecule, the T/C (dose: 20.0 mg/kg/injection, schedule: Q04DX003 (ip), vehicle: saline with Tween-80) was 96 % of control, the T/C (dose: 32.0 mg/kg/injection, schedule: Q01DX009 (ip), vehicle: saline with Tween-80) was 116 % of control and 118 % of control and the T/C (dose: 32.0 mg/kg/injection, schedule: Q01DX009 (ip), vehicle: saline) was 104 % of control. For the same molecule, the T/C (dose: 32.0 mg/kg/injection, schedule: Q01DX009 (ip), vehicle: suspension in saline) was 107 % of control, the T/C (dose: 40.0 mg/kg/injection, schedule: Q04DX003 (ip), vehicle: saline with Tween-80) was 105 % of control and the T/C (dose: 80.0 mg/kg/injection, schedule: Q04DX003 (ip), vehicle: saline with Tween-80) was 101 % of control. For the same molecule, the T/C (dose: 128.0 mg/kg/injection, schedule: Q01DX009 (ip), vehicle: saline with Tween-80) was 152 % of control.
In the case of CCOc1ccccc1NC(=O)c1cccc(C(=O)Nc2ccccc2OCC)c1, the T/C [5] is reported as 105 % of control, the T/C [6] is reported as 94 % of control and the T/C [7] is reported as 94 % of control.
In the case of O=[N+]([O-])c1ccc(C(O)CC(O)(C(F)(F)F)C(F)(F)F)cc1 (stereo not given), the T/C (dose: 100.0 mg/kg/injection, schedule: Q04DX003 (ip), vehicle: Klucel (hydroxypropylcellulose) (HPC)) is reported as 97 % of control, the T/C (dose: 200.0 mg/kg/injection, schedule: Q04DX003 (ip), vehicle: Klucel (hydroxypropylcellulose) (HPC)) is reported as 97 % of control and the T/C (dose: 400.0 mg/kg/injection, schedule: Q04DX003 (ip), vehicle: Klucel (hydroxypropylcellulose) (HPC)) is reported as 95 % of control.
With Cc1c2cc[n+](C)cc2c(C)c2c1[nH]c1ccc(O)cc12 the T/C (dose: 0.06 mg/kg/injection, schedule: Q01DX009 (ip), vehicle: water) was 111 % of control and the T/C (dose: 0.25 mg/kg/injection, schedule: Q01DX009 (ip), vehicle: water) was 158 % of control.
C(=Nc1ccc2c(c1)Cc1ccccc1-2)c1ccnc2ccccc12 was tested, and the T/C [5] was 103 % of control, the T/C [6] was 100 % of control and the T/C [7] was 93 % of control.
In the case of CCCCCCCCCCCCCC[N+](C)(C)CC(=O)O, the T/C [1] is reported as 93 % of control, the T/C [2] is reported as 91 % of control and the T/C [3] is reported as 86 % of control.
In the case of CCCCNCCN(CC)CC, the T/C (dose: 25.0 mg/kg/injection, schedule: Q01DX009 (ip), vehicle: saline) is reported as 100 % of control, the T/C [9] is reported as 100 % of control and the T/C [10] is reported as 98 % of control.
In the case of COc1cccc(C)c1[N+](=O)[O-], the T/C (dose: 75.0 mg/kg/injection, schedule: Q04DX003 (ip), vehicle: Klucel (hydroxypropylcellulose) (HPC)) is reported as 92 % of control, the T/C (dose: 150.0 mg/kg/injection, schedule: Q04DX003 (ip), vehicle: Klucel (hydroxypropylcellulose) (HPC)) is reported as 109 % of control and the T/C (dose: 300.0 mg/kg/injection, schedule: Q04DX003 (ip), vehicle: Klucel (hydroxypropylcellulose) (HPC)) is reported as 90 % of control.
Cc1noc2c1ncc[n+]2[O-] was tested, and the T/C (dose: 5.0 mg/kg/injection, schedule: Q01DX009 (ip), vehicle: saline with Tween-80) was 108 % of control, the T/C (dose: 10.0 mg/kg/injection, schedule: Q01DX009 (ip), vehicle: saline with Tween-80) was 119 % of control and the T/C (dose: 20.0 mg/kg/injection, schedule: Q01DX009 (ip), vehicle: saline with Tween-80) was 116 % of control.
NC(CCC(=O)NC(CCC(=O)O)C(=O)NC(CCC(=O)O)C(=O)O)C(=O)O (stereo not drawn) (γGlu-Glu-Glu-OH; configuration not given here) was tested, and the T/C [9] was 92 % of control, the T/C [10] was 96 % of control and the T/C (dose: 200.0 mg/kg/injection, schedule: Q01DX009 (ip), vehicle: saline) was 89 % of control.
